In ChEMBL document CHEMBL4334434, “Discovery of napabucasin derivatives for the treatment of tuberculosis” (2019):
Values after ≈ are worked out from the molar mass of the structure shown.

Columns and labels:
Type in all cases: functional
[1] = test system: Mycobacterium tuberculosis; assay: Antimycobacterial activity against Mycobacterium tuberculosis H37Ra UAlRa incubated for 6 days by luminescence based assay; conditions: 144 h
[2] = test system: Mycobacterium tuberculosis; assay: Antimycobacterial activity against Mycobacterium tuberculosis K18
[3] = test system: Mycobacterium tuberculosis; assay: Antimycobacterial activity against Mycobacterium tuberculosis K5
[4] = test system: Mycobacterium tuberculosis; assay: Antimycobacterial activity against Mycobacterium tuberculosis K4
[5] = test system: Mycobacterium tuberculosis; assay: Antimycobacterial activity against Mycobacterium tuberculosis H37Rv
[6] = test system: Mycobacterium tuberculosis; assay: Antimycobacterial activity against Mycobacterium tuberculosis K2
[7] = test system: Mycobacterium tuberculosis; assay: Antimycobacterial activity against Mycobacterium tuberculosis K16
[8] = test system: Mycobacterium tuberculosis; assay: Antimycobacterial activity against Mycobacterium tuberculosis K12

In the case of `CC(O)c1cc2c(o1)C(=O)c1ccccc1C2=O` (configuration not stated), the MIC [1] is reported as 41.2 µM (≈ 9.98 µg/mL).
For `CC(c1cc2c(o1)C(=O)c1ccccc1C2=O)N1CCCCC1` (configuration not stated), the MIC [1] was 32.3 µM (≈ 9.99 µg/mL).
`CC(c1cc2c(o1)C(=O)c1ccccc1C2=O)N1CCOCC1` (configuration not stated) showed an MIC [1] of 32.1 µM (≈ 9.99 µg/mL).
`CC(Br)c1cc2c(o1)C(=O)c1ccccc1C2=O` (configuration not stated) gave an MIC [1] of 16.5 µM (≈ 5.03 µg/mL).
Compound `COC(=O)CC1CCN(C(=O)c2cc3c(o2)C(=O)c2ccccc2C3=O)CC1` has an MIC [1] of 3.28 µM (≈ 1.25 µg/mL).
In the case of `O=C(NCCN1CCOCC1)c1cc2c(o1)C(=O)c1ccccc1C2=O`, the MIC [1] is reported as 7.1 µM (≈ 2.52 µg/mL).
For `O=C(NC1CCCCC1)c1cc2c(o1)C(=O)c1ccccc1C2=O`, the MIC [1] was 7.7 µM (≈ 2.49 µg/mL).
`CCN1CCN(C(=O)c2cc3c(o2)C(=O)c2ccccc2C3=O)CC1` was tested, and the MIC [1] was 7.4 µM (≈ 2.5 µg/mL).
For `O=C1c2ccccc2C(=O)c2oc(C(=O)N3CCC(c4cccc(Cl)c4)CC3)cc21`, the MIC [1] was no less than 23.9 µM.
`O=C(NCCc1ccccc1)c1cc2c(o1)C(=O)c1ccccc1C2=O` gave an MIC [1] of no less than 28.9 µM.
`O=C(NCCc1ccccc1F)c1cc2c(o1)C(=O)c1ccccc1C2=O` gave an MIC [2] of 2.5 mg/L (≈ 6.88 µM), an MIC [3] of 12.5 mg/L (≈ 34.4 µM) and an MIC [4] of 12.5 mg/L (≈ 34.4 µM). It also gave an MIC [5] of 0.5 mg/L (≈ 1.38 µM), an MIC [1] of 1.7 µM (≈ 0.618 µg/mL) and an MIC [6] of 0.5 mg/L (≈ 1.38 µM). The MIC [7] was 2.5 mg/L (≈ 6.88 µM) and the MIC [8] was 2.5 mg/L (≈ 6.88 µM).
Compound `O=C(NCCc1ccc(F)cc1)c1cc2c(o1)C(=O)c1ccccc1C2=O` has an MIC [1] of 1.7 µM (≈ 0.618 µg/mL).
`O=C1c2ccccc2C(=O)c2oc(C(=O)N3CCN(c4cccc(C(F)(F)F)c4)CC3)cc21` gave an MIC [2] of 2.5 mg/L (≈ 5.5 µM), an MIC [3] of 25 mg/L (≈ 55 µM) and an MIC [4] of 25 mg/L (≈ 55 µM). For the same compound, the MIC [5] was 1 mg/L (≈ 2.2 µM), the MIC [1] was 2.7 µM (≈ 1.23 µg/mL) and the MIC [6] was 0.5 mg/L (≈ 1.1 µM). It also gave an MIC [7] of 1 mg/L (≈ 2.2 µM) and an MIC [8] of 1 mg/L (≈ 2.2 µM).
With `O=C1c2ccccc2C(=O)c2oc(C(=O)N3CCCCC3)cc21` the MIC [2] was 2.5 mg/L (≈ 8.08 µM), the MIC [3] was 12.5 mg/L (≈ 40.4 µM) and the MIC [4] was 12.5 mg/L (≈ 40.4 µM). For the same compound, the MIC [5] was 0.5 mg/L (≈ 1.62 µM), the MIC [1] was 2 µM (≈ 0.619 µg/mL) and the MIC [6] was 0.5 mg/L (≈ 1.62 µM). It also gave an MIC [7] of 1 mg/L (≈ 3.23 µM) and an MIC [8] of 1 mg/L (≈ 3.23 µM).
Compound `O=C1c2ccccc2C(=O)c2oc(C(=O)N3CCC(c4ccc(F)cc4)CC3)cc21` has an MIC [1] of no less than 24.9 µM.
In the case of `O=C1c2ccccc2C(=O)c2oc(C(=O)N3CCOCC3)cc21`, the MIC [1] is reported as 4 µM (≈ 1.25 µg/mL).
`O=C1c2ccccc2C(=O)c2oc(C(=O)N3CCCC3)cc21` showed an MIC [1] of 4.2 µM (≈ 1.24 µg/mL).
In the case of `O=C(NCc1ccccc1F)c1cc2c(o1)C(=O)c1ccccc1C2=O`, the MIC [1] is reported as 1.8 µM (≈ 0.629 µg/mL).
In the case of `O=C(/C=C/c1ccccc1)c1cc2c(o1)C(=O)c1ccccc1C2=O`, the MIC [1] is reported as no less than 30.4 µM.
In the case of `O=C(NCCc1ccc(Cl)cc1)c1cc2c(o1)C(=O)c1ccccc1C2=O`, the MIC [1] is reported as 6.6 µM (≈ 2.51 µg/mL).
For `O=C(NCc1cccc(F)c1)c1cc2c(o1)C(=O)c1ccccc1C2=O`, the MIC [1] was 0.9 µM (≈ 0.314 µg/mL).
For `CN1CCN(C(=O)c2cc3c(o2)C(=O)c2ccccc2C3=O)CC1`, the MIC [1] was 7.7 µM (≈ 2.5 µg/mL).
`O=C1c2ccccc2C(=O)c2oc(C(=O)N3CCSCC3)cc21` was tested, and the MIC [2] was 0.5 mg/L (≈ 1.53 µM), the MIC [3] was 4 mg/L (≈ 12.2 µM) and the MIC [4] was 2 mg/L (≈ 6.11 µM). For the same compound, the MIC [5] was 0.5 mg/L (≈ 1.53 µM), the MIC [1] was 1.9 µM (≈ 0.622 µg/mL) and the MIC [6] was 0.25 mg/L (≈ 0.764 µM). For the same compound, the MIC [7] was 0.5 mg/L (≈ 1.53 µM) and the MIC [8] was 0.5 mg/L (≈ 1.53 µM).
`O=C(/C=C/c1cccs1)c1cc2c(o1)C(=O)c1ccccc1C2=O` was tested, and the MIC [1] was 29.9 µM (≈ 10 µg/mL).
In the case of `O=C1CCN(C(=O)c2cc3c(o2)C(=O)c2ccccc2C3=O)CC1`, the MIC [1] is reported as 7.7 µM (≈ 2.49 µg/mL).
`Cn1cccc1/C=C/C(=O)c1cc2c(o1)C(=O)c1ccccc1C2=O` was tested, and the MIC [1] was no less than 30.4 µM.
For `O=C(NCCN1CCCCC1)c1cc2c(o1)C(=O)c1ccccc1C2=O`, the MIC [1] was 3.6 µM (≈ 1.27 µg/mL).
`O=C(NCCc1cccc(F)c1)c1cc2c(o1)C(=O)c1ccccc1C2=O` was tested, and the MIC [1] was 0.9 µM (≈ 0.327 µg/mL).
With `CC1(C)CCC(NC(=O)c2cc3c(o2)C(=O)c2ccccc2C3=O)CC1` the MIC [2] was 2.5 mg/L (≈ 7.11 µM), the MIC [3] was 25 mg/L (≈ 71.1 µM) and the MIC [4] was 25 mg/L (≈ 71.1 µM). For the same compound, the MIC [5] was 0.5 mg/L (≈ 1.42 µM), the MIC [1] was 3.56 µM (≈ 1.25 µg/mL) and the MIC [6] was 0.25 mg/L (≈ 0.711 µM). For the same compound, the MIC [7] was 2.5 mg/L (≈ 7.11 µM) and the MIC [8] was 2.5 mg/L (≈ 7.11 µM).
For `O=C(NCc1ccc(F)cc1)c1cc2c(o1)C(=O)c1ccccc1C2=O`, the MIC [1] was 1.8 µM (≈ 0.629 µg/mL).
Work on `O=C(/C=C/c1ccc(O)cc1)c1cc2c(o1)C(=O)c1ccccc1C2=O` yielded an MIC [1] of no less than 29.1 µM.
`CC(=O)c1cc2c(o1)C(=O)c1ccccc1C2=O` [NAPABUCASIN] showed an MIC [1] of 10.4 µM (≈ 2.5 µg/mL).
